pKi: −log10 of the molar value. Where a name gives a salt, the structure may show the parent alone.

Our source for the Ki values is patent US7960569B2, “Indole antagonists of P2Y1 receptor useful in the treatment of thrombotic conditions” (Bristol-Myers Squibb Company, priority 2006, dated 2011).

In the test the target is T1, cloned human P2Y1 receptors (Homo sapiens, UniProt P47900).
T1 construct: expressed in transfected cells
T1 sequence (P47900 whole entry): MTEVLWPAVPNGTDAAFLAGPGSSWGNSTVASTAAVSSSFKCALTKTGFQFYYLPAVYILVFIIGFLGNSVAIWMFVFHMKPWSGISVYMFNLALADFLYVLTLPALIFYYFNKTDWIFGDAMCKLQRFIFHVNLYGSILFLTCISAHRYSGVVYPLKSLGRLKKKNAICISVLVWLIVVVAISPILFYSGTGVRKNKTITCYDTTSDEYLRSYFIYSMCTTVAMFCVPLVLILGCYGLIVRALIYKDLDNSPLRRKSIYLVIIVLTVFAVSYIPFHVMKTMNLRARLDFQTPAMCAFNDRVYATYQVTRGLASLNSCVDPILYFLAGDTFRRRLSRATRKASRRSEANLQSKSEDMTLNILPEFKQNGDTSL
The test can be described thus: Binding Assay A: membrane binding assay, inhibition of [33P] 2MeS-ADP binding (WGA FlashPlates). The source says:
A membrane binding assay was used to identify inhibitors of [^33P] […] The cDNA clone for human P2Y1 was obtained from Incyte Pharmaceuticals and its sequence confirmed by established techniques (for a compendium of techniques used see Ausubel, F. et al. Current Protocols in Molecular Biology 1995 John Wiley and Sons, NY, N.Y.). The essential coding sequences were subcloned into pcDNA 3.1 (Invitrogen) to produce a P2Y1 expression construct. This construct was then transfected into the human embryonic kidney cell line HEK-293 and stable transfectants selected in Genetcin® (G418 sulfate; Life Technologies). […] Membranes were prepared by growing HEK293 #49 in 150 mm dishes in DMEM/10% FBS in the presence of 1 mg/ml G418 until cells were 80-90% confluent. Plates were then washed with cold (4° C.) D-PBS twice and cells harvested by scraping into 10 mL D-PBS. Cells were pelleted by centrifugation (1,000 g, 10 min, 4° C.) and the resulting pellet resuspended in Lysis Buffer (10 mM Tris (7.4), 5 mM MgCl2 containing Complete® protease inhibitor cocktail (Roche Cat #1873580) as recommended by the manufacturer). The suspension was then homogenized in a Dounce homogenizer (10-15 strokes; B pestle, on ice) and the homogenate spun at 1,000 g, 4° C., 5 min to pellet large debris. The supernatant was centrifuged at 150,000 g, 4° C., for 1 hour and the resulting membrane pellet resuspended in 0.5-1 mL of Buffer B (15 mM HEPES (7.4), 145 mM NaCl, 0.1 mM MgCl2, 5 mM EDTA, 5 mM KCl) and stored at −70° C. until used.
Binding reactions were performed in WGA FlashPlates (PerkinElmer Life Sciences, Cat # SMP105A) in a volume of 200 μL containing ˜45 fmol of P2Y1 receptor (5 μg of total protein), 0.5 nM [^33P] […] Reactions were allowed to proceed to completion at room temperature for 1 hour and then the aqueous solution aspirated. Plates were sealed and the residual [^33P] bound to the plate determined by scintillation counting.
What is called pKi is −log10 of the Ki, conventionally taken in molar units. Read a high pKi as a small Ki. In the case of `CC(C)c1ccccc1-n1cc(C(=O)Nc2ccc(N3CCOCC3)cc2)c2ccccc21` [Example 53, 1-(2-isopropylphenyl)-N-(4-morpholinophenyl)-1H-indole-3-carboxamide 2,2,2-trifluoroacetic acid salt], the negative-log Ki (pKi) is 5.92.

With `CC(C)c1ccccc1-c1cn(C(=O)Nc2ccccc2)c2ccccc12` [Example 1, 3-(2-isopropylphenyl)-N-phenyl-1H-indole-1-carboxamide], the negative-log Ki (pKi) was 7.12.

On to `CC(C)c1ccccc1-c1cn(C(=O)Nc2ccc(N(C)C)cc2)c2ccccc12` [Example 12, N-(4-(dimethylamino)phenyl)-3-(2-isopropylphenyl)-1H-indole-1-carboxamide 2,2,2-trifluoroacetic acid salt], for which the pKi was 6.93.

Regarding `CC(C)c1ccccc1-c1cn(C(=O)Nc2ccc(I)cc2)c2ccccc12` [Example 40, N-(4-iodophenyl)-3-(2-isopropylphenyl)-1H-indole-1-carboxamide], the negative-log Ki (pKi) was 7.02.

With `CC(C)c1ccccc1-c1cn(C(=O)Nc2ccc(-c3ccccc3)cc2)c2ccccc12` [Example 27, N-(biphenyl-4-yl)-3-(2-isopropylphenyl)-1H-indole-1-carboxamide], the pKi was 6.84.

`CN(C)Cc1ccccc1-c1cn(C(=O)Nc2ccc(OC(F)(F)F)cc2)c2ccccc12` [Example 33, 3-(2-((dimethylamino)methyl)phenyl)-N-(4-(trifluoromethoxy)phenyl)-1H-indole-1-carboxamide bis(2,2,2-trifluoroacetic acid) salt] had a pKi of 5.89.
